Laboratory results taken from PubChem BioAssay AID2060507 (Molecular Pharmacology Branch, DTP, NCI, 2025).
Values joined by “and” are separate entries in the source; they are usually repeats but may differ in a detail not shown here. Equal values may be shown once. Each block holds one compound with its values, some of them ahead of it.

Tested on: 519858-162-T-J1-PDC complex spheroid viability
Test: Anticancer human tumor 519858-162-T-J1-PDC patient-derived colon adenocarcinoma cell line growth inhibition [GQUAD]
Settings: for viability, T/C: stronger effect = lower value
From the text: DNA G-quadruplex Stabilizer Agents in Combinations in Complex Spheroids
A high-throughput screen of multi-cell type tumor spheroids was designed to identify active combinations of DNA G-quadruplex stabilizer agents and targeted small molecules. Complex spheroids include a stromal component modeled by human endothelial cells (HUVEC) and fibroblasts modeled by human mesenchymal stem cells (MSCs). The concentration ranges selected for each drug and investigational agent were based upon clinically achievable concentrations if the clinical Cmax of the agent was known.
Compounds. The drugs and investigational agents: pidnarulex (CX-5461; NSC782164), APTO-253 (NSC789042), BRACO-19 (NSC847499), peposertib (NSC802822), ceralasertib (NSC780249), elimusertib (NSC800525), camonsertib (NSC841442), AZD-1390 (NSC803789), olaparib (NSC753686), talazoparib (NSC767125), ART-558 (NSC835418), sotorasib (NSC818433), MRTX-1133 (NSC836407), SN-38 (NSC673596), topotecan (NSC609699), etoposide (NSC141540), doxorubicin (NSC123127), gemcitabine (NSC613327), 5-fluorouracil (NSC19893), paclitaxel (NSC125973), vemurafenib (NSC761431), panobinostat (NSC761190), R-306465 (JNJ-16241199; NSC773264), adavosertib (NSC754352), TP-3654 (NSC805149), carboplatin (NSC241240), KSQ-4279 (NSC840948), and staurosporine (NSC755774) were obtained from the National Cancer Institute (NCI) Developmental Therapeutics Program Chemical Repository (34). The FDA-approved anticancer drug set is available from the NCI Developmental Therapeutics Program. […] The stock solutions were prepared in dimethyl sulfoxide (DMSO, Sigma-Aldrich, St. Louis, MO, cat. D2650) at 800-fold the tested concentration and stored at -70 degrees C prior to their use. All drugs and investigational agents were tested over a range starting from a high concentration at or near the clinical Cmax and decreasing in half-log increments. If the clinical Cmax for an agent had not been determined, the highest concentration tested was 10 microM.
2.3 Cell Culture. All cells were maintained in an incubator at 37 degrees C and 5% CO2 with 95% humidity. The PDC lines were cultured according to standard operating procedures established by the NCI PDMR. All PDCs were thawed and cultured in Matrigel-coated flasks prepared with a working solution of 1X Ham's F-12 nutrient mix, without supplementation (Invitrogen, cat. 11765054), 100 U/mL penicillin-streptomycin (Invitrogen, cat. 15140122), and 2.5% Matrigel (Corning Inc., cat. 354248) for the first three passages. The 857933-349-R-J2-PDC line was cultured in 6C/Colon 1B media, which includes advanced DMEM/F-12 (Thermo Fisher Scientific, cat. 12634028), 10 mM HEPES (Thermo Fisher Scientific, cat. 15630080), 1X GlutaMAX supplement (Thermo Fisher Scientific, cat. 35050061), 0.1 mg/mL primocin (InvivoGen, cat. ant-pm-2), 10% defined fetal bovine serum, heat inactivated (HyClone Laboratories Inc., cat. SH30070.03HI), 50% L-WRN conditioned media (ATCC, cat. CRL-3276), 1.25 mM N-Acetyl-L-cysteine (Sigma-Aldrich, cat. A9165), 10 mM nicotinamide (Sigma-Aldrich, cat. N0636), 1X B-27 supplement (Thermo Fisher Scientific, cat. 17504044), 1X N-2 supplement (Thermo Fisher Scientific, cat. 17502048), 10 microM Y-27632 dihydrochloride (Tocris Bioscience, cat. 1254), and 50 ng/mL human EGF recombinant protein (Thermo Fisher Scientific, cat. PHG0311). The 485176-168-R4-J1-PDC line was cultured in Panc media, which includes all 6C/Colon 1B media components plus 100 ng/mL human FGF-10 (Thermo Fisher Scientific, cat. 100-26), 500 nM SB-431542 (Selleckchem, cat. S1067), and gastrin (Tocris, cat. 3006).
[…]
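Further: spheroids exposed to compounds for 7 days.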
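Wherever viability, T/C is given: 100% = DMSO vehicle control viability.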

SMILES: CCc1c2c(nc3ccc(O)cc13)-c1cc3c(c(=O)n1C2)COC(=O)[C@]3(O)CC + Cc1[nH]c2ccc(F)cc2c1-c1nc2c3cccnc3c3ncccc3c2[nH]1
IC50 (curve of first compound, second compound 0.0316 µM): > 316 nM
IC50 (curve of first compound, second compound 0.1 µM): > 316 nM
IC50 (curve of first compound, second compound 0.316 µM): > 316 nM
IC50 (curve of first compound, second compound 1 µM): > 316 nM
IC50 (curve of first compound, second compound 3.16 µM): > 316 nM
IC50 (curve of first compound, second compound 10 µM): < 0.999 nM
viability, T/C (second compound 0.0316 µM, first compound 0.000999 µM): 124%
viability, T/C (second compound 0.0316 µM, first compound 0.00316 µM): 86%
viability, T/C (second compound 0.0316 µM, first compound 0.00999 µM): 70.5%
viability, T/C (second compound 0.0316 µM, first compound 0.0316 µM): 86.6%
viability, T/C (second compound 0.0316 µM, first compound 0.0999 µM): 56.6%
viability, T/C (second compound 0.0316 µM, first compound 0.316 µM): 62.8%
viability, T/C (second compound 0.1 µM, first compound 0.000999 µM): 85%
viability, T/C (second compound 0.1 µM, first compound 0.00316 µM): 96.9%
viability, T/C (second compound 0.1 µM, first compound 0.00999 µM): 63.7%
viability, T/C (second compound 0.1 µM, first compound 0.0316 µM): 63.2%
viability, T/C (second compound 0.1 µM, first compound 0.0999 µM): 84.2%
viability, T/C (second compound 0.1 µM, first compound 0.316 µM): 52.9%
viability, T/C (second compound 0.316 µM, first compound 0.000999 µM): 99.9%
viability, T/C (second compound 0.316 µM, first compound 0.00316 µM): 105%
viability, T/C (second compound 0.316 µM, first compound 0.00999 µM): 60.8%
viability, T/C (second compound 0.316 µM, first compound 0.0316 µM): 53.9%
viability, T/C (second compound 0.316 µM, first compound 0.0999 µM): 63.4%
viability, T/C (second compound 0.316 µM, first compound 0.316 µM): 59.4%
viability, T/C (second compound 1 µM, first compound 0.000999 µM): 89.8%
viability, T/C (second compound 1 µM, first compound 0.00316 µM): 75.2%
viability, T/C (second compound 1 µM, first compound 0.00999 µM): 78.2%
viability, T/C (second compound 1 µM, first compound 0.0316 µM): 83.6%
viability, T/C (second compound 1 µM, first compound 0.0999 µM): 54.6%
viability, T/C (second compound 1 µM, first compound 0.316 µM): 62.8%
viability, T/C (second compound 3.16 µM, first compound 0.000999 µM): 68.5%
viability, T/C (second compound 3.16 µM, first compound 0.00316 µM): 53.3%
viability, T/C (second compound 3.16 µM, first compound 0.00999 µM): 47.8%
viability, T/C (second compound 3.16 µM, first compound 0.0316 µM): 61.1%
viability, T/C (second compound 3.16 µM, first compound 0.0999 µM): 80%
viability, T/C (second compound 3.16 µM, first compound 0.316 µM): 49.9%
viability, T/C (second compound 10 µM, first compound 0.000999 µM): 39.9%
viability, T/C (second compound 10 µM, first compound 0.00316 µM): 50.2%
viability, T/C (second compound 10 µM, first compound 0.00999 µM): 69.7%
viability, T/C (second compound 10 µM, first compound 0.0316 µM): 56.6%
viability, T/C (second compound 10 µM, first compound 0.0999 µM): 74.5%
viability, T/C (second compound 10 µM, first compound 0.316 µM): 76.2%

SMILES: Cc1cnc(CNC(=O)c2c(=O)c3ccc(N4CCCN(C)CC4)nc3n3c2sc2ccccc23)cn1
viability, T/C (compound 1 µM): 69.1% [middle of 10 runs]
viability, T/C (compound 10 µM): 52.6% [middle of 10 runs]

Further lines, with some results ahead:

IC50 (curve of compound): > 316 nM
SMILES: Cn1ncnc1[C@H]1c2n[nH]c(=O)c3cc(F)cc(c23)N[C@@H]1c1ccc(F)cc1
viability, T/C (compound 0.000999 µM): 83.7% and 86.3%
viability, T/C (compound 0.00316 µM): 82.9% and 98.9%
viability, T/C (compound 0.00999 µM): 105% and 58.1%
viability, T/C (compound 0.0316 µM): 92.4% and 96.9%
viability, T/C (compound 0.0999 µM): 119% and 84.3%
viability, T/C (compound 0.316 µM): 116% and 59.9%

IC50 (curve of compound): 184 nM and 162 nM
SMILES: O=C(NO)c1cnc(N2CCN(S(=O)(=O)c3ccc4ccccc4c3)CC2)nc1
viability, T/C (compound 0.0316 µM): 97.8% and 112%
viability, T/C (compound 0.1 µM): 76.5% and 58.8%
viability, T/C (compound 0.316 µM): 25.8% and 37.5%
viability, T/C (compound 1 µM): 9.47% and 14.6%
viability, T/C (compound 3.16 µM): 0.68% and 0.35%
viability, T/C (compound 10 µM): 0.51% and 0.58%

IC50 (curve of compound): > 10000 nM
SMILES: O=C(c1cc(Cc2n[nH]c(=O)c3ccccc23)ccc1F)N1CCN(C(=O)C2CC2)CC1
viability, T/C (compound 0.0316 µM): 86.5% and 87.2%
viability, T/C (compound 0.1 µM): 88.4% and 82.1%
viability, T/C (compound 0.316 µM): 115% and 95.4%
viability, T/C (compound 1 µM): 102% and 79.3%
viability, T/C (compound 3.16 µM): 86.3% and 93%
viability, T/C (compound 10 µM): 103% and 69.9%
